Source: patent US20200289441A1, “METHODS FOR PROMOTING HAIR GROWTH USING VALPROIC ACID” (FOLLICA, INC., priority 2017, published 2020)

Legend:
[1] = test system: neofollicle germs in the wound area; experiment: Neofollicle germ formation after full thickness excision (FTE) in mice, counted by confocal imaging and AP staining; assay type: in vivo, C57BL6/J female mice
Description: A study was conducted to assess the degree to which valproic acid could stimulate growth of new hair follicles by in mice when applied after a full thickness excision (FTE) procedure. FTE creates a zone of hair follicles that are 100% newly formed and removes noise from other clouding factors (e.g., migration of pre-existing follicles into the wound) (e.g., as described in Ito et. al., Nature, May 2007, “Wnt-dependent de novo hair follicle regeneration in adult mouse skin after wounding”, the contents of which is herein incorporated by reference in its entirety). The study was conducted with 2 arms (1) vehicle control and (2) 8.3% valproic acid; n=21 mice per arm). Valproic acid or placebo was applied twice daily for 4 days following scab detachment. The resulting data was analyzed and compared to a vehicle compound control cohort.
Day-12 C57BL6/J female mice pups (Jackson Labs) were maintained in cages and fed a high fat diet until day of surgery. […] After 1 hour, the mice were injected with ketamine (70 mg/kg)-xylazine (8 mg/kg), assigned a Study ID, and weight was recorded. […]
The degree of neofollicle germ formation was measured in the wound area, using imaging by confocal microscopy (confocal scanning laser microscope (CSLM) (VivaScope 1500, Lucid Inc., Rochester, N.Y., USA) and counting the number of early hair follicles developing underneath the surface of the skin. […]

[2] = test system: total hair counts; settings: topical; male patients with androgenetic alopecia; Jo et al., Journal of Dermatology 2014; cited from earlier work

CCCC(CCC)C(=O)O [Valproic Acid, 2-propylpentanoic acid]
Number of neofollicles versus FTE + vehicle treated controls (in words) ([1]; FTE + VPA 8.3% topical twice daily for 4 days, mice): strong trend indicating increased numbers of neofollicles | Mean count of neofollicles (Primary 1 + Primary 2 scoring categories) ([1]; FTE mice, 8.3% valproic acid in 50% ethanol/30% water/20% propylene glycol, topical 20 uL twice daily for 4 days after scab detachment, n=15, vehicle control 26.3 (n=21), one-tail P 0.066): 37.1 | Total hair count (in words) [2]: increase total hair counts
